# Assay results published in PubChem BioAssay AID2060893 (Molecular Pharmacology Branch, DTP, NCI, 2025).
# pIC50: −log10 of the molar value.
# Test system: K86415-001-R-J1-PDC complex spheroids, viability
# Test: Anticancer human tumor K86415-001-R-J1-PDC patient-derived lung adenocarcinoma cell line growth inhibition [RAS]
# Settings: for pIC50: curve of first compound; for viability, T/C: stronger effect = lower value; for IC50: curve of compound
# In short: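 Agents were tested in combination matrices in half-log decrements from a top concentration at or near clinical Cmax (10 microM if undetermined). Targets were multi-cell spheroids of tumour lines plus HUVEC and MSC stromal cells.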
# 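Further: spheroids exposed to agents for seven days before readout.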
smiles,measurement,setting,value
C=CC(=O)N1CCN(c2nc(OCC3CCCN3C)nc3c(F)c(-c4nc(N)cc(C)c4C(F)(F)F)c(Cl)cc23)C(C)C1 (stereo not drawn) + C#Cc1c(F)ccc2cc(O)cc(-c3ncc4c(N5CC6CCC(C5)N6)nc(OCC56CCCN5CC(F)C6)nc4c3F)c12,pIC50,second compound 0.0316 µM,> 8.50
same,pIC50,second compound 0.1 µM,> 8.50
same,pIC50,second compound 0.316 µM,> 8.50
same,pIC50,second compound 1 µM,> 8.50
same,pIC50,second compound 3.16 µM,> 8.50
same,pIC50,second compound 10 µM,> 8.50
same,"viability, T/C","second compound 0.0316 µM, first compound 0.00316 µM",18.2%
same,"viability, T/C","second compound 0.0316 µM, first compound 0.01 µM",12.5%
same,"viability, T/C","second compound 0.0316 µM, first compound 0.0316 µM",11.4%
same,"viability, T/C","second compound 0.0316 µM, first compound 0.1 µM",11.2%
same,"viability, T/C","second compound 0.0316 µM, first compound 0.316 µM",8.99%
same,"viability, T/C","second compound 0.0316 µM, first compound 1 µM",12%
same,"viability, T/C","second compound 0.1 µM, first compound 0.00316 µM",19.5%
same,"viability, T/C","second compound 0.1 µM, first compound 0.01 µM",12.3%
same,"viability, T/C","second compound 0.1 µM, first compound 0.0316 µM",11.3%
same,"viability, T/C","second compound 0.1 µM, first compound 0.1 µM",10.5%
same,"viability, T/C","second compound 0.1 µM, first compound 0.316 µM",7.88%
same,"viability, T/C","second compound 0.1 µM, first compound 1 µM",11%
same,"viability, T/C","second compound 0.316 µM, first compound 0.00316 µM",19.9%
same,"viability, T/C","second compound 0.316 µM, first compound 0.01 µM",11.8%
same,"viability, T/C","second compound 0.316 µM, first compound 0.0316 µM",8.76%
same,"viability, T/C","second compound 0.316 µM, first compound 0.1 µM",12.1%
same,"viability, T/C","second compound 0.316 µM, first compound 0.316 µM",9.15%
same,"viability, T/C","second compound 0.316 µM, first compound 1 µM",9.63%
same,"viability, T/C","second compound 1 µM, first compound 0.00316 µM",18.6%
same,"viability, T/C","second compound 1 µM, first compound 0.01 µM",13.6%
same,"viability, T/C","second compound 1 µM, first compound 0.0316 µM",13.2%
same,"viability, T/C","second compound 1 µM, first compound 0.1 µM",8.99%
same,"viability, T/C","second compound 1 µM, first compound 0.316 µM",10.1%
same,"viability, T/C","second compound 1 µM, first compound 1 µM",10.7%
same,"viability, T/C","second compound 3.16 µM, first compound 0.00316 µM",19.5%
same,"viability, T/C","second compound 3.16 µM, first compound 0.01 µM",13.4%
same,"viability, T/C","second compound 3.16 µM, first compound 0.0316 µM",9.24%
same,"viability, T/C","second compound 3.16 µM, first compound 0.1 µM",9.62%
same,"viability, T/C","second compound 3.16 µM, first compound 0.316 µM",9.96%
same,"viability, T/C","second compound 3.16 µM, first compound 1 µM",9.83%
same,"viability, T/C","second compound 10 µM, first compound 0.00316 µM",11.9%
same,"viability, T/C","second compound 10 µM, first compound 0.01 µM",12.9%
same,"viability, T/C","second compound 10 µM, first compound 0.0316 µM",10.9%
same,"viability, T/C","second compound 10 µM, first compound 0.1 µM",9.94%
same,"viability, T/C","second compound 10 µM, first compound 0.316 µM",10.1%
same,"viability, T/C","second compound 10 µM, first compound 1 µM",9.54%
CC(Nc1ccc2c(c1)OCCn1cc(N3C(=O)OCC3C(F)F)nc1-2)C(N)=O (stereo not drawn),"viability, T/C",compound 0.0316 µM,94.1% [middle of 4 runs]
same,"viability, T/C",compound 0.1 µM,86% [middle of 4 runs]
same,"viability, T/C",compound 0.316 µM,71.7% [middle of 4 runs]
same,"viability, T/C",compound 1 µM,54.5% [middle of 4 runs]
same,"viability, T/C",compound 3.16 µM,40.5% [middle of 4 runs]
same,"viability, T/C",compound 10 µM,29.4% [middle of 4 runs]
same,IC50,,1.48 µM [middle of 4 runs]
Nc1ccn(C2OC(CO)C(O)C2(F)F)c(=O)n1 (stereo not drawn),"viability, T/C",compound 0.00316 µM,106% [middle of 4 runs]
same,"viability, T/C",compound 0.01 µM,97.5% [middle of 4 runs]
same,"viability, T/C",compound 0.0316 µM,78.7% [middle of 4 runs]
same,"viability, T/C",compound 0.1 µM,61.3% [middle of 4 runs]
same,"viability, T/C",compound 0.316 µM,31.2% [middle of 4 runs]
same,"viability, T/C",compound 1 µM,22.3% [middle of 4 runs]
same,IC50,,136 nM [middle of 4 runs]
CC1(O)CCCC1n1c(=O)c(C(F)F)cc2cnc(NC3CCN(S(C)(=O)=O)CC3)nc21 (stereo not drawn) + CCn1c(-c2cccnc2C(C)OC)c2c3cc(ccc31)N1CCOC(CC(NC(=O)C(C(C)C)N(C)C(=O)C3(F)CCN(C(=O)C#CC(C)(C)N(C)C)CC3)C(=O)N3CCCC(N3)C(=O)OCC(C)(C)C2)C1,pIC50,second compound 0.000949 µM,> 7.50
same,pIC50,second compound 0.003 µM,> 7.50
same,pIC50,second compound 0.00949 µM,> 7.50
same,pIC50,second compound 0.03 µM,> 7.50
same,pIC50,second compound 0.0949 µM,> 7.50
same,pIC50,second compound 0.3 µM,> 7.50
same,"viability, T/C","second compound 0.000949 µM, first compound 0.0316 µM",30.1%
same,"viability, T/C","second compound 0.000949 µM, first compound 0.1 µM",32.6%
same,"viability, T/C","second compound 0.000949 µM, first compound 0.316 µM",21.6%
same,"viability, T/C","second compound 0.000949 µM, first compound 1 µM",38.8%
same,"viability, T/C","second compound 0.000949 µM, first compound 3.16 µM",48.3%
same,"viability, T/C","second compound 0.000949 µM, first compound 10 µM",4.79%
same,"viability, T/C","second compound 0.003 µM, first compound 0.0316 µM",12.8%
same,"viability, T/C","second compound 0.003 µM, first compound 0.1 µM",11.3%
same,"viability, T/C","second compound 0.003 µM, first compound 0.316 µM",14.8%
same,"viability, T/C","second compound 0.003 µM, first compound 1 µM",17.3%
same,"viability, T/C","second compound 0.003 µM, first compound 3.16 µM",25%
same,"viability, T/C","second compound 0.003 µM, first compound 10 µM",4.45%
same,"viability, T/C","second compound 0.00949 µM, first compound 0.0316 µM",13.9%
same,"viability, T/C","second compound 0.00949 µM, first compound 0.1 µM",10.5%
same,"viability, T/C","second compound 0.00949 µM, first compound 0.316 µM",12.7%
same,"viability, T/C","second compound 0.00949 µM, first compound 1 µM",18.9%
same,"viability, T/C","second compound 0.00949 µM, first compound 3.16 µM",19.8%
same,"viability, T/C","second compound 0.00949 µM, first compound 10 µM",4.71%
same,"viability, T/C","second compound 0.03 µM, first compound 0.0316 µM",13.7%
same,"viability, T/C","second compound 0.03 µM, first compound 0.1 µM",13.3%
same,"viability, T/C","second compound 0.03 µM, first compound 0.316 µM",14.6%
same,"viability, T/C","second compound 0.03 µM, first compound 1 µM",15.6%
same,"viability, T/C","second compound 0.03 µM, first compound 3.16 µM",18.1%
same,"viability, T/C","second compound 0.03 µM, first compound 10 µM",4.45%
same,"viability, T/C","second compound 0.0949 µM, first compound 0.0316 µM",11.3%
same,"viability, T/C","second compound 0.0949 µM, first compound 0.1 µM",15%
same,"viability, T/C","second compound 0.0949 µM, first compound 0.316 µM",11.6%
same,"viability, T/C","second compound 0.0949 µM, first compound 1 µM",20.2%
same,"viability, T/C","second compound 0.0949 µM, first compound 3.16 µM",14.9%
same,"viability, T/C","second compound 0.0949 µM, first compound 10 µM",5.12%
same,"viability, T/C","second compound 0.3 µM, first compound 0.0316 µM",13%
same,"viability, T/C","second compound 0.3 µM, first compound 0.1 µM",14.5%
same,"viability, T/C","second compound 0.3 µM, first compound 0.316 µM",12.7%
same,"viability, T/C","second compound 0.3 µM, first compound 1 µM",14.6%
same,"viability, T/C","second compound 0.3 µM, first compound 3.16 µM",17.6%
same,"viability, T/C","second compound 0.3 µM, first compound 10 µM",3.94%
